Columns and labels:
[1] = target: T1, soluble guanylate cyclase (sGC) (Bos taurus, UniProt P16068); assay: Activation of soluble guanylate cyclase (cGMP enzyme immunoassay); type: biochemical; conditions: sGC isolated from bovine lung, stimulation of basal enzyme activity vs solvent control
T1 construct: The sGC employed had been isolated from bovine lung; from tissue; host or cells: bovine lung
T1 sequence (P16068 1-619): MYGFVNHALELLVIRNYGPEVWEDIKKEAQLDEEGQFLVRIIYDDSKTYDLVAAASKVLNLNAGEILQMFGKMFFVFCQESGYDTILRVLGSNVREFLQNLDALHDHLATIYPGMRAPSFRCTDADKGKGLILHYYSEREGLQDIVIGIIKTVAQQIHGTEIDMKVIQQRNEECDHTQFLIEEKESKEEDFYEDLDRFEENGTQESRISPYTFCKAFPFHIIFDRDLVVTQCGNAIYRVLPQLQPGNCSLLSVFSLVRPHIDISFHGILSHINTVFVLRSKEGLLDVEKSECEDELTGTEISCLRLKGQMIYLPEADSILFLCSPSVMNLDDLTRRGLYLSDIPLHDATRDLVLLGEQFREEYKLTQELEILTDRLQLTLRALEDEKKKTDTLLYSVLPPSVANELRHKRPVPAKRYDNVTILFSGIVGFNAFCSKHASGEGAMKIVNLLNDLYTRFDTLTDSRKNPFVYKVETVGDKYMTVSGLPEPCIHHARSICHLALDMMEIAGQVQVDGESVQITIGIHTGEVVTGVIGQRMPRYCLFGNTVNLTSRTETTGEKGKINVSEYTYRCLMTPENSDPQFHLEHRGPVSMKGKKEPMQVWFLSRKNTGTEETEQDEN
T1 sequence (P19687 1-691 partner): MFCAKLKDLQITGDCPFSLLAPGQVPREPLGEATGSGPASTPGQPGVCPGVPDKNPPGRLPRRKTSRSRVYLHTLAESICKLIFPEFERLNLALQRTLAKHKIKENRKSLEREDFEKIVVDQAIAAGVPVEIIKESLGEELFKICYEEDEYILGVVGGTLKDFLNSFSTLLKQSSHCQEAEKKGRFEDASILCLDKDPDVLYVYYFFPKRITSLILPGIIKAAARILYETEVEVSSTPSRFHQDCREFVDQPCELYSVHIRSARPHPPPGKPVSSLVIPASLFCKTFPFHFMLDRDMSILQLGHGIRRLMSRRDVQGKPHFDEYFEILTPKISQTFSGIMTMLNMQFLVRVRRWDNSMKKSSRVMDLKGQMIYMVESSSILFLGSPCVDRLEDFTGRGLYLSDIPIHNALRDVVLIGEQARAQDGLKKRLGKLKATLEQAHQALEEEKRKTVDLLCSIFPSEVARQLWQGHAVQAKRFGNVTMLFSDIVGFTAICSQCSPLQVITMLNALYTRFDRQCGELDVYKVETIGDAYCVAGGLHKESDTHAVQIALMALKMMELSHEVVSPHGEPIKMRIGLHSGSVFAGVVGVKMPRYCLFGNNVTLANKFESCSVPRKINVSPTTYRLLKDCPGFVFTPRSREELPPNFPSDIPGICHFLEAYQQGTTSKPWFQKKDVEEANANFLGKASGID
Protocol: The activation of soluble guanylate cyclase (sGC), which catalyzes the conversion of guanosine triphosphate (GTP) to cyclic guanosine monophosphate (cGMP) and pyrophosphate, by the compounds according to the invention was quantified with the aid of an enzyme immunoassay (EIA) from Amersham. For this, the test substances were first incubated with sGC in microtiter plates and then the quantity of the resulting cGMP was determined.
The sGC employed had been isolated from bovine lung (see Methods in Enzymology, Volume 195, p. 377). The test solutions (100 μl per well) contained 50 mM triethanolamine (TEA) buffer (pH 7.5), 3 mM MgCl2, 3 mM reduced glutathione (GSH), 0.1 mM GTP, 1 mM 3-isobutyl-1-methylxanthine (IBMX), suitably diluted enzyme solution and the test substance or, in the control experiments, solvent. The test substances were dissolved in dimethyl sulfoxide (DMSO) and the solution was diluted with DMSO/water such that the final concentration c of test substance in the test batch had the value indicated below. The DMSO concentration in the test batch was 5% (v/v). The reaction was started by addition of the sGC. The reaction mix was incubated at 37° C. for 15 to 20 minutes and then stopped by ice-cooling and addition of the stop reagent (50 mM EDTA, pH 8.0). An aliquot of 50 μl was taken and employed for the determination of the cGMP content using the acetylation protocol of the Amersham cGMP EIA kit. The absorption of the samples was measured at 450 nm (reference wavelength 620 nm) in a microtiter plate reading apparatus. The cGMP concentration was determined by means of a calibration curve, which was obtained under the same experimental conditions. The activation of the sGC by a test substance is indicated as n-fold stimulation of the basal enzyme activity which was found in the control experiments (with solvent instead of test substance) (calculated according to the formula n-fold stimulation=[cGMP]test substance/[cGMP]control).

SMILES | n-fold stimulation ([1]; concentration c 25 μM) | melting point | n-fold stimulation ([1]; concentration c 100 μM) | n-fold stimulation ([1]; concentration c 50 μM) | n-fold stimulation ([1]; concentration c 10 μM)
CCOC(=O)c1ccc(NC(=O)c2cc(Cl)ccc2NS(=O)(=O)c2ccc(Cl)cc2)cc1 [Example 14, Ethyl 4-(5-chloro-2-(4-chlorophenylsulfonylamino)benzoylamino)benzoate] |  | 185 °C | 1.7 n-fold |  | 
O=C(Nc1cccc(C(F)(F)F)c1)c1cc(Cl)ccc1NS(=O)(=O)c1ccc(Cl)cc1 [Example 4, 5-Chloro-2-(4-chlorophenylsulfonylamino)-N-(3-trifluoromethylphenyl)benzamide] | 5.5 n-fold | 216 °C |  |  | 
O=C(Nc1ccc(N2CCOCC2)cc1)c1cc(Cl)ccc1NS(=O)(=O)c1ccc(Cl)cc1 [Example 21, 5-Chloro-2-(4-chlorophenylsulfonylamino)-N-(4-(morpholin-4-yl)phenyl)benzamide] |  | 228.5 °C |  | 8 n-fold | 
O=C(Nc1cccc(C(F)(F)F)c1)c1cc(Br)ccc1NS(=O)(=O)c1ccc(Cl)cc1 [Example 2, 5-Bromo-2-(4-chlorophenylsulfonylamino)-N-(3-trifluoromethylphenyl)benzamide] |  | 220 °C | 9.2 n-fold |  | 
O=C(Nc1ccc(Oc2ccccc2)cc1)c1cc(Cl)ccc1NS(=O)(=O)c1ccc(Cl)cc1 [Example 5, 5-Chloro-2-(4-chlorophenylsulfonylamino)-N-(4-phenoxyphenyl)benzamide] |  | 205 °C |  |  | 9.3 n-fold
O=C(Nc1cc(Cl)cc(Cl)c1)c1cc(Cl)ccc1NS(=O)(=O)c1ccc(F)cc1 [Example 13, 5-Chloro-2-(4-fluorophenylsulfonylamino)-N-(3,5-dichlorophenyl)benzamide] |  | 250 °C | 1.8 n-fold |  | 
O=C(Nc1ccc(Br)cc1)c1cc(Cl)ccc1NS(=O)(=O)c1ccc(Cl)cc1 [Example 9, 5-Chloro-2-(4-chlorophenylsulfonylamino)-N-(4-bromophenyl)benzamide] |  | 210 °C | 1.6 n-fold |  | 

The next lines start with the values.

n-fold stimulation ([1]; concentration c 25 μM) | melting point | n-fold stimulation ([1]; concentration c 100 μM) | n-fold stimulation ([1]; concentration c 50 μM) | n-fold stimulation ([1]; concentration c 10 μM) | SMILES
2.2 n-fold | 191 °C |  |  |  | O=C(Nc1ccc(OCc2ccccc2)cc1)c1cc(Cl)ccc1NS(=O)(=O)c1ccc(Cl)cc1 [Example 23, 5-Chloro-2-(4-chlorophenylsulfonylamino)-N-(4-(benzyloxy)phenyl)benzamide]
 | 190 °C | 1.8 n-fold |  |  | COc1ccc(NC(=O)c2cc(Cl)ccc2NS(=O)(=O)c2ccc(Cl)cc2)cc1 [Example 11, 5-Chloro-2-(4-chlorophenylsulfonylamino)-N-(4-methoxyphenyl)benzamide]
 | 235 °C |  |  | 9.9 n-fold | CS(=O)(=O)N(c1ccc(NC(=O)c2cc(Cl)ccc2NS(=O)(=O)c2ccc(Cl)cc2)cc1)S(C)(=O)=O [Example 15, 5-Chloro-2-(4-chlorophenylsulfonylamino)-N-(4-(bismethylsulfonylamino)phenyl)benzamide]
2.8 n-fold | 211 °C |  |  |  | O=C(Nc1ccc2ccccc2c1)c1cc(Cl)ccc1NS(=O)(=O)c1ccc(Cl)cc1 [Example 12, 5-Chloro-2-(4-chlorophenylsulfonylamino)-N-(2-naphthyl)benzamide]

Reference: patent US7351703B2, “Sulfonylamino carboxylic acid N-arylamides as guanylate cyclase activators” (Sanofi-Aventis Deutschland GmbH, priority 1999, dated 2008)
